One assay deals with T1, σ1-α-SA complex (Reovirus type 3, UniProt P03528).
T1 construct: made in house; host or cells: L929 cells (virus-infected)
T1 sequence (P03528 1-455): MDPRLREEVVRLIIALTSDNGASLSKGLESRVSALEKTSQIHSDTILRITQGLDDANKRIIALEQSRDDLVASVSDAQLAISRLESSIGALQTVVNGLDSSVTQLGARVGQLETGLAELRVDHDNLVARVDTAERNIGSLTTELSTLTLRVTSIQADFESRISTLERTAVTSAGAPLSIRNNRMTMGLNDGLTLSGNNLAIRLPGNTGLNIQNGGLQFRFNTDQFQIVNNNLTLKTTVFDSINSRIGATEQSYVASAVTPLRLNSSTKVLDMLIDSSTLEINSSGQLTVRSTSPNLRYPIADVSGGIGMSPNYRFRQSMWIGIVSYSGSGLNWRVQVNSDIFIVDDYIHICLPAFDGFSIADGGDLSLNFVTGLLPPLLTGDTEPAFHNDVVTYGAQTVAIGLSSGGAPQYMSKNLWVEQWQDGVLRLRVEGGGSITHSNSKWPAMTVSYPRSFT
The experiment in a line: FD-based AFM single-virus force spectroscopy on α-SA-coated model surfaces. It is filed as binding. The following applies: injection of 1 mM free glycan, FIG. 3b. As to the method:
NHS-PEG27-acetal linkers were used to functionalize AFM tips as described (Gruber. Crosslinkers and Protocols for AFM Tip Functionalization. https://wwwjku.at/institut-fuer-biophysik/forschung/linked, 2018; Wildling et al. Linking of sensor molecules with amino groups to aminofunctionalized AFM tips. Bioconjug. Chem. 2011, vol. 22, 1239-1248). AFM tips (PFQNM-LC and MSCT probes, Bruker) were immersed in chloroform for 10 min, rinsed with ethanol, dried with a stream of filtered nitrogen, cleaned for 10 min using an ultraviolet radiation and ozone (UV-0) cleaner (Jetlight), and immersed overnight in an ethanolamine solution (3.3 g of ethanolamine hydrochloride in 6.6 mL of DMSO). The cantilevers were washed three times with DMSO, and two times with ethanol and dried with nitrogen. To ensure a low grafting density of the linker on the AFM tip, 1 mg of acetal-PEG27-NHS was diluted in 0.5 mL of chloroform with 30 μL of […] (Gruber, supra; Wildling et al., supra). Ethanolamine-coated cantilevers were immersed for 2 h in this solution, washed three times with chloroform, and dried with nitrogen. Cantilevers were then immersed for 10 min in 1% citric acid in milliQ water, washed three times with milliQ water, and dried with nitrogen. Virus solution (80 μL at ˜10^8 to 10^9 particles mL^−1) was pipetted onto the tips placed on Parafilm (Bemis NA) in a small plastic dish stored within an icebox. A freshly prepared solution of NaCNBH3 (2 μL at ˜6% wt. in 0.1 M NaOH(aq)) was gently mixed into the virus solution, and the cantilever chips were gently positioned with the cantilevers extending into the virus drop. The icebox was incubated at 4° C. for 1 h. Then, 5 μL of 1 M ethanolamine solution (pH 8) was gently mixed into the drop to quench the reaction. The icebox was incubated at 4° C. for an additional 10 min, and the cantilever chips were removed, washed three times in ice-cold PBS, and stored in individual wells of a multiwell dish containing 2 mL of ice-cold virus buffer (150 mM NaCl, 15 mM MgCl2, 10 mM Tris, pH adjusted to 7.4) per well until used in AFM experiments. […]

The test system of another assay is JAM-A. The experiment in a line: Biolayer interferometry (BLI) of JAM-A-reovirus interactions. It is filed as binding. The following applies: 1 mM free glycan. On the procedure:
Virus binding to JAM-A was measured on a BLItz® (Pall ForteBio) biolayer interferometer equipped with a Ni2+-NTA biosensor (Pall ForteBio). After loading the chip in a 10 mM NiCl2 solution for 2 min and running an initial baseline step in milliQ water (1 min), JAM-A (0.2 mg mL^−1) was immobilized on the exposed Ni^2+ ions via its C-terminal His6 tag for 5 min until the binding signal reached a plateau (complete saturation of the biosensor). Binding of viral particles (T3SA+, T3SA− or ISVP; at 16 nM) in the absence or presence of 1 mM Neu5Ac was measured during a 10 min association step after another baseline step (virus buffer for 1 min). Dissociation was monitored directly after the association step for 10 min during which the virus solution was exchanged with virus buffer. Chip can be regenerated several times by exposing the biosensor to 10 mM Glycine pH 1.7 followed by a neutralization buffer (Kinetics Buffer). The resulting sensorgram (binding over time) was processed and fitted with a nonlinear regression approach using an association and then dissociation fit provided by GraphPad Prism. Virus concentration and time at which dissociation was initiated were constrained to constant values of 16 nM and 17 min, respectively. From that fit, koff and kon were extracted and KD was calculated.
On the technique in general: BLI is a label-free optical method that tracks binding on a fibre tip over time.

Here are results for three compounds from patent US20220111034A1, “VIRUS COMPOSITIONS” (priority 2019, published 2022).

For `CC(=O)N[C@H]1[C@H](O[C@H]2[C@@H](O)[C@@H](CO)O[C@@H](O[C@H]3[C@H](O)[C@@H](O)C(O)O[C@@H]3CO)[C@@H]2O)O[C@H](CO)[C@@H](O[C@@H]2O[C@H](CO)[C@H](O)[C@H](O)[C@H]2O)[C@@H]1O` (mixture of isomers) [LNnT, lacto-N-neotetraose, reference compound], the “competition with T3SA+ binding to SA” value at σ1-α-SA complex is reported as “but not LNnT strongly competed”. For the compound `CC(=O)N[C@H]1[C@H]([C@H](O)[C@H](O)CO)OC(O)(C(=O)O)C[C@@H]1O` (stereo partly shown) [Neu5Ac, N-acetylneuraminic acid], the “competition with T3SA+ binding to SA” value on σ1-α-SA complex is recorded as “strongly competed”. Moreover, in the assay on JAM-A, the “influence on T3SA− binding to JAM-A” value is on record as “had no influence”. Consider sialyl-lacto-N-tetraose a [LSTa], for which the “competition with T3SA+ binding to SA” value at σ1-α-SA complex was “strongly competed”.
